Broadly, the inhibition is the change of the read-out against control, counted positive when it falls.

Drawing on ChEMBL document CHEMBL3132769, “Fragment growing to retain or alter the selectivity of anchored kinase hinge-binding fragments” (Medchemcomm, 2014), this text covers inhibition for nine compounds.

Test [1] deals with Calcium/calmodulin-dependent protein kinase type II subunit delta (Homo sapiens) (UniProt Q13557). The test is described as follows: Inhibition of human full length CAMK2D expressed in baculovirus assessed as substrate phosphorylation using fluorescence-labelled peptides as substrate at 8 uM after 90 mins by microfluidic peptide phosphorylation assay.
Sequence of Calcium/calmodulin-dependent protein kinase type II subunit delta (Homo sapiens) (Q13557 whole entry, the tested form may be a part): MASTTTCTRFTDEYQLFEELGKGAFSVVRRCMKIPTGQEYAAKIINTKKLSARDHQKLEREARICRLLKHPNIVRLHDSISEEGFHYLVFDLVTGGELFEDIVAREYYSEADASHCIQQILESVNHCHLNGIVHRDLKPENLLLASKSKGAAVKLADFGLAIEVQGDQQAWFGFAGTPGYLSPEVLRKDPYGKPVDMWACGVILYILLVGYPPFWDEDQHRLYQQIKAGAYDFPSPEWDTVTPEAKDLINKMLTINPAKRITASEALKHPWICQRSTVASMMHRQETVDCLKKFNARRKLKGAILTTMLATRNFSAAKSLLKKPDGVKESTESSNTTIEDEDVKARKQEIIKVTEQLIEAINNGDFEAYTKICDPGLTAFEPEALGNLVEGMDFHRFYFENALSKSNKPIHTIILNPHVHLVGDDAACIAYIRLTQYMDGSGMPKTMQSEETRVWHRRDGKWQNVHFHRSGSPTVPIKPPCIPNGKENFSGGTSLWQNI
The target in test [2] is Protein kinase C gamma type (Homo sapiens) (UniProt P05129). The test is described as follows: Inhibition of human truncated PKC gamma expressed in baculovirus assessed as substrate phosphorylation using fluorescence-labelled peptides as substrate at 8 uM after 90 mins by microfluidic peptide phosphorylation assay.
Test [3] has as its target T1, Serine/threonine-protein kinase Nek2 (Homo sapiens) (UniProt P51955).
T1 sequence (whole entry): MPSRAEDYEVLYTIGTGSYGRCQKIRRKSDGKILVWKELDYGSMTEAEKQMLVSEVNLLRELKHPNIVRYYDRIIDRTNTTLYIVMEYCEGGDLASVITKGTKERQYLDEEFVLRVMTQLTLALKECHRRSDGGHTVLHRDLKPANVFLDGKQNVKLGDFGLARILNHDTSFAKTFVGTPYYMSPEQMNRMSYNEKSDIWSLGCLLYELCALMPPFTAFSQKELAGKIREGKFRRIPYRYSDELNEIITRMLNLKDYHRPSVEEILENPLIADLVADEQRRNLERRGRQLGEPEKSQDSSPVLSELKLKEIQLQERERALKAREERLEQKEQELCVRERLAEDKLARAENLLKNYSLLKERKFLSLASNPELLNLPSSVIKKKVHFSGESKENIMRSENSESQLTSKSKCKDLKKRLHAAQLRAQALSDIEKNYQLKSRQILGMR
The test is described as follows: Inhibition of human full length NEK2 expressed in baculovirus assessed as substrate phosphorylation using fluorescence-labelled peptides as substrate at 420 uM after 90 mins by microfluidic peptide phosphorylation assay.

Test [4] addresses Casein kinase I isoform alpha (Homo sapiens) (UniProt P48729). The test is described as follows: Inhibition of human full length CSNK1A1 expressed in baculovirus assessed as substrate phosphorylation using fluorescence-labelled peptides as substrate at 0.1 uM after 90 mins by microfluidic peptide phosphorylation assay.
Test [5] deals with Tyrosine-protein kinase ABL2 (Homo sapiens) (UniProt P42684). The test is described as follows: Inhibition of human truncated Arg expressed in baculovirus assessed as substrate phosphorylation using fluorescence-labelled peptides as substrate at 0.1 uM after 90 mins by microfluidic peptide phosphorylation assay.
Sequence of Tyrosine-protein kinase ABL2 (Homo sapiens) (P42684 whole entry, the tested form may be a part, canonical isoform): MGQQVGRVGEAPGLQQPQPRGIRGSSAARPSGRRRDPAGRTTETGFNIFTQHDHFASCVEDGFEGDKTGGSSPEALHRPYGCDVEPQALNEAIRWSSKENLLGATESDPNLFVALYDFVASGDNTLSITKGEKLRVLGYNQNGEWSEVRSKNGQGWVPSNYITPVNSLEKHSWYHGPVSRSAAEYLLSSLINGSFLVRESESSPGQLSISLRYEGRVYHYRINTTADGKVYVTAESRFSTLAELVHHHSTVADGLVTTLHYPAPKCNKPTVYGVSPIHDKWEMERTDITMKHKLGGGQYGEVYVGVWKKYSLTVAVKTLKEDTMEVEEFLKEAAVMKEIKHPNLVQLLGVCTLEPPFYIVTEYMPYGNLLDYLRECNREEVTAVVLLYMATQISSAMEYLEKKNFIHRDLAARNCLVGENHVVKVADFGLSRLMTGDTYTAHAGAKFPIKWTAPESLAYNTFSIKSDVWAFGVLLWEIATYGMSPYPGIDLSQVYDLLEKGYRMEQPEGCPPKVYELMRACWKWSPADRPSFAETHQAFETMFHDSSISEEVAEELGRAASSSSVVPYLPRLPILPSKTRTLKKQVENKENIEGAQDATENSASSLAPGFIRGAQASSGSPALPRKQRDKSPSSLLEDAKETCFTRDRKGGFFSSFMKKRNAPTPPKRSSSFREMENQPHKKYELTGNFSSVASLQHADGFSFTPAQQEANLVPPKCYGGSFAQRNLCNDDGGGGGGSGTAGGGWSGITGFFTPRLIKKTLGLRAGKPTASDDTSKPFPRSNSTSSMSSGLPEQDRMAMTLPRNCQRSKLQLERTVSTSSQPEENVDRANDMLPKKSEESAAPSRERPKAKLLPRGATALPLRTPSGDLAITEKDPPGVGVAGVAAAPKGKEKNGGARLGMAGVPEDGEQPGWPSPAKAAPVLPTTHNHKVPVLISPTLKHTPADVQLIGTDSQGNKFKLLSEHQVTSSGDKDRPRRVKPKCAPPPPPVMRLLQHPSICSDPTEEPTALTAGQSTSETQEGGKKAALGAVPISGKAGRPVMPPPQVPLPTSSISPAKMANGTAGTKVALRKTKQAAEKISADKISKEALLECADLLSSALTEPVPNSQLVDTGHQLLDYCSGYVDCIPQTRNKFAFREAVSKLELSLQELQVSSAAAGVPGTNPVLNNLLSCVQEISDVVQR
For test [6], the target named is Casein kinase I isoform alpha (Homo sapiens) (UniProt P48729). The test is described as follows: Inhibition of human full length CSNK1A1 expressed in baculovirus assessed as substrate phosphorylation using fluorescence-labelled peptides as substrate at 0.06 uM after 90 mins by microfluidic peptide phosphorylation assay.
Sequence of Casein kinase I isoform alpha (Homo sapiens) (P48729 2-337 limits assumed): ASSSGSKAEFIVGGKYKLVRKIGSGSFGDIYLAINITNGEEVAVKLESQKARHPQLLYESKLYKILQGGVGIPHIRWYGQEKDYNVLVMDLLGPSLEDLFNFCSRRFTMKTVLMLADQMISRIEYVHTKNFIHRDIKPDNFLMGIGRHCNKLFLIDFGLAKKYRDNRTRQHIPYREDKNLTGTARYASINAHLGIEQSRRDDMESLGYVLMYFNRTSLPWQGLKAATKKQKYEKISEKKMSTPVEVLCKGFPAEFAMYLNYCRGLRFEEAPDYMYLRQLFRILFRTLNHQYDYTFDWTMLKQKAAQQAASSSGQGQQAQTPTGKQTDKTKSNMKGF
In test [7] the target is Tyrosine-protein kinase ABL2 (Homo sapiens) (UniProt P42684). Description: Inhibition of human truncated Arg expressed in baculovirus assessed as substrate phosphorylation using fluorescence-labelled peptides as substrate at 0.2 uM after 90 mins by microfluidic peptide phosphorylation assay.
For test [8], the target named is Protein kinase C gamma type (Homo sapiens) (UniProt P05129). The test is described as follows: Inhibition of human truncated PKC gamma expressed in baculovirus assessed as substrate phosphorylation using fluorescence-labelled peptides as substrate at 0.2 uM after 90 mins by microfluidic peptide phosphorylation assay.
Test [9] deals with Serine/threonine-protein kinase PAK 2 (Homo sapiens) (UniProt Q13177). The test is described as follows: Inhibition of human truncated PAK2 expressed in Escherichia coli cell assessed as substrate phosphorylation using fluorescence-labelled peptides as substrate at 0.2 uM after 90 mins by microfluidic peptide phosphorylation assay.
Sequence of Serine/threonine-protein kinase PAK 2 (Homo sapiens) (Q13177 whole entry, the tested form may be a part): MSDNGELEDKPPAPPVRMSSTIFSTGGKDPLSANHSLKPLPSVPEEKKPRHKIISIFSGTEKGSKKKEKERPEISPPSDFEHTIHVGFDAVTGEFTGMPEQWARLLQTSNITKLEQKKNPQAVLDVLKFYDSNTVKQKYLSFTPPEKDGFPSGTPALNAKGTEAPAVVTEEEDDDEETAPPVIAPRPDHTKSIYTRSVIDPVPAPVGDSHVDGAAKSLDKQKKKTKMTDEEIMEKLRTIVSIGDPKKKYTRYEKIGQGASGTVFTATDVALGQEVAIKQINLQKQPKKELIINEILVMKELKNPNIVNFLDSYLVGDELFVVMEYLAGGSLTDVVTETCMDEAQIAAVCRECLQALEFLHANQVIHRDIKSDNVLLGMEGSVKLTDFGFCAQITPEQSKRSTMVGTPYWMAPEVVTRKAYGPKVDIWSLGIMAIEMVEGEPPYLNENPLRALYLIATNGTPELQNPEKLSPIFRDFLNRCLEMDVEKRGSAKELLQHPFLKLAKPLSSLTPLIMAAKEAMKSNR
In test [10] the target is T2, Mitogen-activated protein kinase 13 (Homo sapiens) (UniProt O15264).
T2 sequence (whole entry): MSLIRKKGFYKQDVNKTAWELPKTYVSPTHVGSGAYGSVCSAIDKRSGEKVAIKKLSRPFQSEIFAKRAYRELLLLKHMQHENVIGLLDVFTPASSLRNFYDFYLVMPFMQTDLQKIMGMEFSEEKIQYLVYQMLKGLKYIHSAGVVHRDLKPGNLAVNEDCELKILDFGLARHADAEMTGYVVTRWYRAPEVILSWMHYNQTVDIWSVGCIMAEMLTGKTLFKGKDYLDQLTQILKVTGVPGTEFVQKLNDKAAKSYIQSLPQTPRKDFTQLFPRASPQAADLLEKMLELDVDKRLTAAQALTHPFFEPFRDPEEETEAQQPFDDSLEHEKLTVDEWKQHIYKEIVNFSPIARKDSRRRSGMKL
Description: Inhibition of human full length p38 delta expressed in Escherichia coli cell assessed as substrate phosphorylation using fluorescence-labelled peptides as substrate at 70 uM after 90 mins by microfluidic peptide phosphorylation assay.

Test [11] concerns Tyrosine-protein kinase ABL1 (Homo sapiens), P00519 [H396P]. Description: Inhibition of human truncated ABL H396P mutant expressed in baculovirus assessed as substrate phosphorylation using fluorescence-labelled peptides as substrate at 2 uM after 90 mins by microfluidic peptide phosphorylation assay.
The target in test [12] is T2, Mitogen-activated protein kinase 13 (Homo sapiens). Description: Inhibition of human full length p38 delta expressed in Escherichia coli cell assessed as substrate phosphorylation using fluorescence-labelled peptides as substrate at 2 uM after 90 mins by microfluidic peptide phosphorylation assay.
Test [13] has as its target T3, Serine/threonine-protein kinase BRSK2 (Homo sapiens) (UniProt Q8IWQ3).
T3 sequence (whole entry): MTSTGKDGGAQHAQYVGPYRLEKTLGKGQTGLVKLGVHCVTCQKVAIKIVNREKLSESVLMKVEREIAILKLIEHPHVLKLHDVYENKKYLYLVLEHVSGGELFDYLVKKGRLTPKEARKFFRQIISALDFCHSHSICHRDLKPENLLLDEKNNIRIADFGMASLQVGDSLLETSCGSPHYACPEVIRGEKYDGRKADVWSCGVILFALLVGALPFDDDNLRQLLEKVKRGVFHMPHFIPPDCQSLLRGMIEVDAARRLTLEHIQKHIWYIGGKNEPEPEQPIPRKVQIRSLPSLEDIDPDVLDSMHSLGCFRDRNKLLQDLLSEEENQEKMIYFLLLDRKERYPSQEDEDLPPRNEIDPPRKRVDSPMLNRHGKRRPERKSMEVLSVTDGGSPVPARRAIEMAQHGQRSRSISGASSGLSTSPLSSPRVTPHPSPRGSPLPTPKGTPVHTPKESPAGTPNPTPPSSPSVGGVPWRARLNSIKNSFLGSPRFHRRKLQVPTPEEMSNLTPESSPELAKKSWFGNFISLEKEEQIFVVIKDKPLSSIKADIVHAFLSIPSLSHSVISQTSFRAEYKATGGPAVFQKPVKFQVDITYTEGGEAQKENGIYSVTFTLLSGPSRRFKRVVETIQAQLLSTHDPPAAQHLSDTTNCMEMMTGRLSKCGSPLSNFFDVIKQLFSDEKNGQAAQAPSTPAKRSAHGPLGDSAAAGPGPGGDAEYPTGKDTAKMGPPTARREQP
The test is described as follows: Inhibition of human truncated BRSK2 expressed in baculovirus assessed as substrate phosphorylation using fluorescence-labelled peptides as substrate at 2 uM after 90 mins by microfluidic peptide phosphorylation assay.

Test [14] concerns the target Mitogen-activated protein kinase 14 (Homo sapiens) (UniProt Q16539). The test is described as follows: Inhibition of human truncated p38 alpha expressed in Escherichia coli cell assessed as substrate phosphorylation using fluorescence-labelled peptides as substrate at 95 uM after 90 mins by microfluidic peptide phosphorylation assay.
For test [15], the target named is Mitogen-activated protein kinase 3 (Homo sapiens) (UniProt P27361). Description: Inhibition of human full length ERK1 expressed in Escherichia coli cell assessed as substrate phosphorylation using fluorescence-labelled peptides as substrate at 1000 uM after 90 mins by microfluidic peptide phosphorylation assay.
Sequence of Mitogen-activated protein kinase 3 (Homo sapiens) (P27361 whole entry): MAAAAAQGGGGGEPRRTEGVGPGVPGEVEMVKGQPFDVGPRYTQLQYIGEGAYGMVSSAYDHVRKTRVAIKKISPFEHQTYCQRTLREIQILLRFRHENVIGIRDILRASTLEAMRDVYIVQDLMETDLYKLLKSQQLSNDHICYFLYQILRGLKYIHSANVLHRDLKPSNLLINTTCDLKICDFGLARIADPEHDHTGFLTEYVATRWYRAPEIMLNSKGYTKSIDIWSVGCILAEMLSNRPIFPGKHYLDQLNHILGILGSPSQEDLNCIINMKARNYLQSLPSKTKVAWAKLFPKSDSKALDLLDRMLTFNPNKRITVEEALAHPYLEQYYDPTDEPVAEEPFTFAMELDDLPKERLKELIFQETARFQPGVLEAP

Structures are written as SMILES.

Sequence of Mitogen-activated protein kinase 14 (Homo sapiens) (Q16539 whole entry, the tested form may be a part): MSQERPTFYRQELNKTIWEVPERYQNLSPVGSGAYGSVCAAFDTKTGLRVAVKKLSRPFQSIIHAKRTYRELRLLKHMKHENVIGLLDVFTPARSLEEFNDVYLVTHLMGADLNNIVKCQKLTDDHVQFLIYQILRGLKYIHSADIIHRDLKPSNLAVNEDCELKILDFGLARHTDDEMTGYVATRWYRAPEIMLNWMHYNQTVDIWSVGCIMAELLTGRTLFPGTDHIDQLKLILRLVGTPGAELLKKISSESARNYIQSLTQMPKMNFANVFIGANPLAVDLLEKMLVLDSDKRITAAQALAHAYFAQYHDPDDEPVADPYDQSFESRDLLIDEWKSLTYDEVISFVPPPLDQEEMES

`NCC1CCN(c2ncnc3[nH]ccc23)CC1`: the inhibition in test [1] stood at 25%; in test [2] it was 86%.

Consider `c1nc(N2CCOCC2)c2nc[nH]c2n1`, for which the inhibition in test [3] was found to be 27%.

On to `C[C@H](CN(C)C)Oc1nc(Nc2cc3cccc(Cl)c3cn2)cnc1C#N`, for which the inhibition was found to be 2.5% in test [4] and 1.5% in [5].

On to `NC1(Cc2ccc(Cl)cc2)CCN(c2ncnc3[nH]ccc23)CC1`, for which the inhibition in test [6] stood at 1%.

For the compound `Clc1ccc(C2(c3ccc(-c4ncnc5[nH]cnc45)cc3)CCNCC2)cc1`, the results for the inhibition in test [7], in test [8] and in test [9] were 4.5%, 80% and 11%, respectively.

`CNCc1ccc(-c2ncnc3[nH]cnc23)cc1`: the inhibition in [10] came out at 5%.

On to `NC1CCN(c2ncnc3[nH]ccc23)CC1`, for which the inhibition in [11] is 2.5%; in [12] it was 8%; in test [13] it was 2.5%.

For `NCCc1ccc(-c2ncnc3[nH]cnc23)cc1`, the inhibition in test [14] worked out at 6.5%.

Regarding `c1cnc2[nH]ccc2c1`, in test [15], the inhibition was 36%.
